Key:
Assay type in all cases: in vivo
[1] = test system: sicklepod (Cassia obtusifolia, CASOB); assay: Pre-emerge test, greenhouse herbicide activity screening; conditions: pre-emerge, phytotoxicity rating 0-100 at 14 days after application
Procedure, shortened: (§1)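 Herbicidal damage is scored 0 (none) to 100 (complete plant death) two weeks after a simulated field spray. Rates span 15–1000 g ai/ha, delivered in acetone at 187 l/ha. For post-emergence treatments, plants have 2–3 leaves and the spray carries 0.25% v/v non-ionic surfactant.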

[2] = test system: velvetleaf (Abutilon theophrasti, ABUTH); assay: as above; conditions: pre-emerge, phytotoxicity rating 0-100 at 14 days after application
Procedure, shortened: as §1

[3] = test system: green foxtail (Setaria viridis, SETVI); assay: as above; conditions: pre-emerge, phytotoxicity rating 0-100 at 14 days after application
Procedure, shortened: as §1

[4] = test system: johnsongrass (Sorghum halepense, SORHA); assay: as above; conditions: pre-emerge, phytotoxicity rating 0-100 at 14 days after application
Procedure, shortened: as §1

[5] = test system: large crabgrass (Digitaria sanguinalis, DIGSA); assay: as above; conditions: pre-emerge, phytotoxicity rating 0-100 at 14 days after application
Procedure, shortened: as §1

[6] = test system: ivyleaf morningglory (Ipomoea hederacea, IPOHE); assay: as above; conditions: pre-emerge, phytotoxicity rating 0-100 at 14 days after application
Procedure, shortened: as §1

[7] = test system: lambsquarters (Chenopodium album, CHEAL); assay: as above; conditions: pre-emerge, phytotoxicity rating 0-100 at 14 days after application
Procedure, shortened: as §1

[8] = test system: barnyardgrass (Echinochloa crus-galli, ECHCG); assay: as above; conditions: pre-emerge, phytotoxicity rating 0-100 at 14 days after application
Procedure, shortened: as §1

[9] = test system: redroot pigweed (Amaranthus retroflexus, AMARE); assay: as above; conditions: pre-emerge, phytotoxicity rating 0-100 at 14 days after application
Procedure, shortened: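 Compounds in acetone were track-sprayed at 187 l/ha, 15–1000 g ai/ha, onto sandy loam pots. Pre-emerge seeds were sown one day before spraying, with surface watering afterwards. Post-emerge plants were at the 2–3 leaf stage and sprayed with 0.25% v/v non-ionic surfactant. Injury was rated 0–100 at 14 days.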

[10] = test system: sicklepod (Cassia obtusifolia, CASOB); assay: Post-emerge test, greenhouse herbicide activity screening; conditions: post-emerge, phytotoxicity rating 0-100 at 14 days after application
Procedure, shortened: (§2)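 Visual ratings on a 0-100 scale (0 no damage, 100 all plants dead) were taken at 14 days after treatment. Rates of 15-1000 g ai/ha in acetone, 187 l/ha, were sprayed onto soil one day after planting (pre-emerge) or onto 2-3 leaf plants with 0.25% v/v surfactant (post-emerge).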

[11] = test system: velvetleaf (Abutilon theophrasti, ABUTH); assay: as above; conditions: post-emerge, phytotoxicity rating 0-100 at 14 days after application
Procedure, shortened: as §2

[12] = test system: green foxtail (Setaria viridis, SETVI); assay: as above; conditions: post-emerge, phytotoxicity rating 0-100 at 14 days after application
Procedure, shortened: as §2

[13] = test system: johnsongrass (Sorghum halepense, SORHA); assay: as above; conditions: post-emerge, phytotoxicity rating 0-100 at 14 days after application
Procedure, shortened: as §2

[14] = test system: large crabgrass (Digitaria sanguinalis, DIGSA); assay: as above; conditions: post-emerge, phytotoxicity rating 0-100 at 14 days after application
Procedure, shortened: as §2

[15] = test system: ivyleaf morningglory (Ipomoea hederacea, IPOHE); assay: as above; conditions: post-emerge, phytotoxicity rating 0-100 at 14 days after application
Procedure, shortened: as §2

[16] = test system: lambsquarters (Chenopodium album, CHEAL); assay: as above; conditions: post-emerge, phytotoxicity rating 0-100 at 14 days after application
Procedure, shortened: as §2

[17] = test system: barnyardgrass (Echinochloa crus-galli, ECHCG); assay: as above; conditions: post-emerge, phytotoxicity rating 0-100 at 14 days after application
Procedure, shortened: as §2

[18] = test system: redroot pigweed (Amaranthus retroflexus, AMARE); assay: as above; conditions: post-emerge, phytotoxicity rating 0-100 at 14 days after application
Procedure, shortened: as §2

[19] = test system: field corn (Zea mays L., var. Dekalb 535, CORN); assay: Post-emerge test, crop safety; conditions: post-emerge, crop damage rating 0-100 at 14 days after application
Procedure, shortened: as §1

[20] = test system: upland rice (Oryza sp., var. Tebonnet, RICE); assay: Post-emerge test, crop safety; conditions: post-emerge, crop damage rating 0-100 at 14 days after application
Procedure, shortened: as §1

[21] = test system: field corn (Zea mays L., var. Dekalb 535, CORN); assay: Pre-emerge test, crop safety; conditions: crop damage, pre-emerge, phytotoxicity rating 0-100 at 14 days after application
Procedure, shortened: as §1

[22] = test system: upland rice (Oryza sp., var. Tebonnet, RICE); assay: Pre-emerge test, crop safety; conditions: crop damage, pre-emerge, phytotoxicity rating 0-100 at 14 days after application
Procedure, shortened: as §1

CCC(=O)Nc1c(Cl)cc(Cl)c(-n2nc(C)n(C(F)F)c2=O)c1N [Compound 6-19]
Pre-emerge Herbicidal Activity CASOB ([1]; rate 63 g ai/ha): 0 | Pre-emerge Herbicidal Activity CASOB ([1]; rate 250 g ai/ha): 0 | Pre-emerge Herbicidal Activity ABUTH ([2]; rate 63 g ai/ha): 20 | Pre-emerge Herbicidal Activity ABUTH ([2]; rate 250 g ai/ha): 50 | Pre-emerge Herbicidal Activity SETVI ([3]; rate 63 g ai/ha): 0 | Pre-emerge Herbicidal Activity SETVI ([3]; rate 250 g ai/ha): 10 | Pre-emerge Herbicidal Activity SORHA ([4]; rate 63 g ai/ha): 0 | Pre-emerge Herbicidal Activity SORHA ([4]; rate 250 g ai/ha): 0 | Pre-emerge Herbicidal Activity DIGSA ([5]; rate 63 g ai/ha): 0 | Pre-emerge Herbicidal Activity DIGSA ([5]; rate 250 g ai/ha): 0 | Pre-emerge Herbicidal Activity IPOHE ([6]; rate 63 g ai/ha): 0 | Pre-emerge Herbicidal Activity IPOHE ([6]; rate 250 g ai/ha): 0 | Pre-emerge Herbicidal Activity CHEAL ([7]; rate 63 g ai/ha): 70 | Pre-emerge Herbicidal Activity CHEAL ([7]; rate 250 g ai/ha): 90 | Pre-emerge Herbicidal Activity ECHCG ([8]; rate 63 g ai/ha): 0 | Pre-emerge Herbicidal Activity ECHCG ([8]; rate 250 g ai/ha): 0 | Pre-emerge Herbicidal Activity AMARE ([9]; rate 63 g ai/ha): 30 | Pre-emerge Herbicidal Activity AMARE ([9]; rate 250 g ai/ha): 70 | Post-emerge Herbicidal Activity CASOB ([10]; 63 g ai/ha): 0 | Post-emerge Herbicidal Activity CASOB ([10]; 250 g ai/ha): 0 | Post-emerge Herbicidal Activity ABUTH ([11]; 63 g ai/ha): 0 | Post-emerge Herbicidal Activity ABUTH ([11]; 250 g ai/ha): 50 | Post-emerge Herbicidal Activity SETVI ([12]; 63 g ai/ha): 0 | Post-emerge Herbicidal Activity SETVI ([12]; 250 g ai/ha): 0 | Post-emerge Herbicidal Activity SORHA ([13]; 63 g ai/ha): 0 | Post-emerge Herbicidal Activity SORHA ([13]; 250 g ai/ha): 0 | Post-emerge Herbicidal Activity DIGSA ([14]; 63 g ai/ha): 0 | Post-emerge Herbicidal Activity DIGSA ([14]; 250 g ai/ha): 0 | Post-emerge Herbicidal Activity IPOHE ([15]; 63 g ai/ha): 0 | Post-emerge Herbicidal Activity IPOHE ([15]; 250 g ai/ha): 30 | Post-emerge Herbicidal Activity CHEAL ([16]; 63 g ai/ha): 0 | Post-emerge Herbicidal Activity CHEAL ([16]; 250 g ai/ha): 60 | Post-emerge Herbicidal Activity ECHCG ([17]; 63 g ai/ha): 0 | Post-emerge Herbicidal Activity ECHCG ([17]; 250 g ai/ha): 0 | Post-emerge Herbicidal Activity AMARE ([18]; 63 g ai/ha): 0 | Post-emerge Herbicidal Activity AMARE ([18]; 250 g ai/ha): 30 | Post-emerge Herbicidal Activity CORN ([19]; 63 g ai/ha): 0 | Post-emerge Herbicidal Activity CORN ([19]; 250 g ai/ha): 0 | Post-emerge Herbicidal Activity RICE ([20]; 63 g ai/ha): 0 | Post-emerge Herbicidal Activity RICE ([20]; 250 g ai/ha): 0 | Pre-emerge Herbicidal Activity CORN ([21]; rate 63 g ai/ha): 0 | Pre-emerge Herbicidal Activity CORN ([21]; rate 250 g ai/ha): 0 | Pre-emerge Herbicidal Activity RICE ([22]; rate 63 g ai/ha): 0 | Pre-emerge Herbicidal Activity RICE ([22]; rate 250 g ai/ha): 0

— patent US6355799B1, “Substituted benzene compounds, process for their preparation, and herbicidal and defoliant compositions containing them” (ISK Americas Incorporated, priority 1997, dated 2002)
